The results in this text go back to ChEMBL document CHEMBL3596151, “Elucidation of the in vitro and in vivo activities of bridged 1,2,4-trioxolanes, bridged 1,2,4,5-tetraoxanes, tricyclic monoperoxides, silyl peroxides, and hydroxylamine derivatives against Schistosoma mansoni” (Bioorg Med Chem, 2015).

pIC50: −log10 of the molar value. Active and inactive are the calls of the source. The rule behind the calls is not given here. Where only a bound is given, the exact number is not on record here.

Data set [1] concerns Schistosoma mansoni. The data set can be described thus: Antischistosomal activity against newly transformed Schistosoma mansoni cercariae assessed as decrease in viability after 72 hrs by microscopic analysis. In kind it is functional, organism-based.
The subject of data set [2] is Schistosoma mansoni. The data set can be described thus: Antischistosomal activity against adult Schistosoma mansoni assessed as decrease in viability after 72 hrs by microscopic analysis. In kind it is functional, organism-based.
Data set [3] deals with L6. The data set can be described thus: Cytotoxicity against rat L6 cells assessed as decrease in cell viability after 72 hrs by resazurin dye based fluorescence analysis. Conditions: for pIC50: Rattus norvegicus, L6, 72 h; for Activity: rat, l6, 72 h.
Data set [4] in a line: Selectivity index, ratio of IC50 for rat L6 cells to IC50 for adult Schistosoma mansoni.
The test system of data set [5] is Schistosoma mansoni. Briefly: Antischistosomal activity against Schistosoma mansoni strain Liberian cercariae infected in NMRI mouse assessed as reduction of worm burden in portal and mesenteric veins and liver at 400 mg/kg, po treated after 49 days of infection measured 16 to 21 days post treatment. In kind it is functional.
In data set [6] the test system is Schistosoma mansoni. Briefly: Antischistosomal activity against newly transformed Schistosoma mansoni cercariae assessed as decrease in viability at 12.5 ug/ml after 72 hrs by microscopic analysis. In kind it is functional, organism-based.
Data set [7] deals with Schistosoma mansoni. Briefly: Antischistosomal activity against adult Schistosoma mansoni assessed as decrease in viability at 25 ug/ml after 72 hrs by microscopic analysis. The format is functional, organism-based.

As for `CC(=O)[C@@]1(Cc2ccc(Br)cc2)CC[C@]2(C)OO[C@@]1(C)O2`, the values for the pIC50 in data set [1], in data set [2] and in data set [3] were 5.66, 5.38 and 5.09, respectively. In addition, the “Ratio IC50” value in data set [4] is 1.6. Further, the inhibition in vivo at 400 mg/kg in data set [5] was found to be 44.3%.
`CC(=O)[C@@]1(Cc2ccc([N+](=O)[O-])cc2)CC[C@]2(C)OO[C@@]1(C)O2`: the pIC50 in data set [1] was 5.11; in data set [2], 4.64. In data set [3], the Activity entry is “Non-toxic”.
On to `CC1[C@]2(C)OO[C@@]1(C13CC4CC(CC(C4)C1)C3)OO2` (some centres undefined), for which the values for the pIC50 in data set [1], in data set [2] and in data set [3] were 5.40, 5.41 and > 6.40, respectively. Besides, the “Ratio IC50” value in data set [4] is recorded as <0.1.
Consider `CC(=O)CCC1(Cc2ccc(Cl)cc2)[C@]2(C)OO[C@@]1(C)OO2` (some centres undefined), for which the pIC50 in data set [1] was 5.46; in data set [2], 4.81. Besides, in data set [3], the Activity entry is recorded as “Non-toxic”.
As for `CC(=O)[C@]1(Cc2ccc(C)cc2)CC[C@]2(C)OO[C@@]1(C)O2`, the inhibition entry in data set [6] was “inactive”. The pIC50 in data set [2] was 5.00. In data set [3], the Activity result is “Non-toxic”.
Regarding `CC(C)(C)C1CCC2(CC1)OO[Si](C)(C)CC[Si](C)(C)OO2`, the pIC50 in data set [1] is 5.40. Moreover, the inhibition entry in data set [7] was “inactive”. The Activity entry in data set [3] was “Non-toxic”.
`CC(=O)[C@]1(Cc2ccc(Cl)cc2)CC[C@]2(C)OO[C@@]1(C)O2`: the pIC50 in data set [1] was 5.55; in data set [2], 5.38; in data set [3], 5.57. The “Ratio IC50” value in data set [4] was 1.3. For the same compound, the inhibition in vivo at 400 mg/kg in data set [5] stood at 42.9%.
On to `CC(=O)CCC1(Cc2ccc(C)cc2)[C@]2(C)OO[C@@]1(C)OO2` (some centres undefined), for which the pIC50 was 5.28 in data set [1], 5.01 in data set [2] and 5.60 in data set [3]. Further, the “Ratio IC50” value in data set [4] is listed as 0.3.
Consider `CC(=O)[C@@]1(Cc2ccccc2)CC[C@]2(C)OO[C@@]1(C)O2`, for which the values for the pIC50 in data set [1] and in data set [2] were 5.25 and 4.99, respectively. In addition, the Activity entry in data set [3] was “Non-toxic”.
Take `CC[C@]12C[C@](C34CC5CC(CC(C5)C3)C4)(OO1)OO2`: the pIC50 in data set [1] was 5.74; in data set [2], 5.70; in data set [3], > 6.40. Further, the “Ratio IC50” value in data set [4] was <0.2.
The matching figures for `CC(=O)CCC1(Cc2ccc(Br)cc2)[C@]2(C)OO[C@@]1(C)OO2` (some centres undefined): 5.89, 5.08, 5.60 and 0.4.
As for `CCCC[C@]1(C(C)=O)CCC2(C)OOC1(C)O2` (single isomer, unassigned), the inhibition entry in data set [6] was “inactive”. In addition, in data set [2], the pIC50 is 4.91. Also, the Activity result in data set [3] is recorded as “Non-toxic”.
Turning to `C[Si]1(C)CC[Si](C)(C)OOC2(CCCCCCCCCCC2)OO1`, in data set [1], the pIC50 was 5.14. Besides, the inhibition entry in data set [7] was “inactive”. For the same compound, the Activity entry in data set [3] is recorded as “Non-toxic”.
`C[C@]12C[C@](C34CC5CC(CC(C5)C3)C4)(OO1)OO2`: the pIC50 was 5.89 in data set [1], 5.70 in data set [2] and > 6.40 in data set [3]. Besides, in data set [4], the “Ratio IC50” value is listed as <0.2.
As for `CC(=O)[C@@]1(Cc2ccc(Cl)cc2)CC[C@]2(C)OO[C@@]1(C)O2`, the figures for the pIC50 in data set [1] and in data set [2] were 5.49 and 4.95, respectively. Also, in data set [3], the Activity entry was “Non-toxic”.
`CC(=O)[C@@]1(Cc2ccc(C)cc2)CC[C@]2(C)OO[C@@]1(C)O2`: the pIC50 is 4.91 in data set [1], 5.13 in data set [2] and 4.82 in data set [3]. The “Ratio IC50” value in data set [4] is reported as 7.4. The inhibition in vivo at 400 mg/kg in data set [5] was determined as 9.9%.
In the case of `CC(C)C[C@]12OO[C@](C)(OO1)C2C12CC3CC(CC(C3)C1)C2` (some centres undefined), the figures for the negative-log IC50 (pIC50) in data set [1], in data set [2] and in data set [3] were 6.05, 5.74 and 6.00, respectively. Besides, the “Ratio IC50” value in data set [4] turned out to be 0.5.
Take `CC(C)C[C@@]12OO[C@]3(C)OC(C)(CCC31)O2`: the pIC50 in data set [1] is 5.70; in data set [2] it was 5.70; in data set [3] it was 5.31. Further, the “Ratio IC50” value in data set [4] is listed as 3. For the same compound, the inhibition in vivo at 400 mg/kg in data set [5] is 0%.
For `CC(=O)CCC1(Cc2ccccc2)[C@]2(C)OO[C@@]1(C)OO2` (some centres undefined), the results for the pIC50 in data set [1] and in data set [2] were 5.80 and 4.96, respectively. The Activity result in data set [3] is “Non-toxic”.
Turning to `CC(=O)[C@]1(Cc2ccc(Br)cc2)CC[C@]2(C)OO[C@@]1(C)O2`, the pIC50 in data set [1] was 5.21; in data set [2] it was 5.18; in data set [3] it was 5.14. For the same compound, the “Ratio IC50” value in data set [4] was found to be 1.1.
The matching figures for `CC(=O)[C@]1(Cc2ccc([N+](=O)[O-])cc2)CC[C@]2(C)OO[C@@]1(C)O2`: 5.24, 5.15, 4.64 and 1.7.
In the case of `CC[C@]12OO[C@@]3(CC(C)C)OC(C)(CCC31)O2`, the negative logarithm of the IC50 (pIC50) in data set [1] was 5.57; in data set [2], 5.36; in data set [3], 4.61. Besides, in data set [4], the “Ratio IC50” value is reported as 5.7. For the same compound, the inhibition in vivo at 400 mg/kg in data set [5] is 26.7%.
In the same order, the values of `CC(=O)[C@]1(Cc2ccccc2)CC[C@]2(C)OO[C@@]1(C)O2` are 6.40, 5.74, 5.27, 2.9 and 6.2%.
